In the test the target is IRAK4 (Homo sapiens (Human), UniProt Q9NWZ3). Put plainly: In vitro IRAK4 phosphorylation activity assay. The format is biochemical. The following applies: [γ-33P]-ATP, myelin basic protein substrate, 40 minutes at room temperature; categories. The procedure: In vitro IRAK4 analysis was performed using N-(1H-imidazol-2-yl)benzamide compounds according to the present invention. All compounds were prepared by dissolving in DMSO. N-(1H-imidazol-2-yl)benzamide compound according to the present invention and other elements for the reaction were added to an assay well. In the standard Kinase Profiler service the preincubation step between the N-(1H-imidazol-2-yl)benzamide compound and kinase was not performed before the reaction.
Sequence of IRAK4 (Q9NWZ3 whole entry): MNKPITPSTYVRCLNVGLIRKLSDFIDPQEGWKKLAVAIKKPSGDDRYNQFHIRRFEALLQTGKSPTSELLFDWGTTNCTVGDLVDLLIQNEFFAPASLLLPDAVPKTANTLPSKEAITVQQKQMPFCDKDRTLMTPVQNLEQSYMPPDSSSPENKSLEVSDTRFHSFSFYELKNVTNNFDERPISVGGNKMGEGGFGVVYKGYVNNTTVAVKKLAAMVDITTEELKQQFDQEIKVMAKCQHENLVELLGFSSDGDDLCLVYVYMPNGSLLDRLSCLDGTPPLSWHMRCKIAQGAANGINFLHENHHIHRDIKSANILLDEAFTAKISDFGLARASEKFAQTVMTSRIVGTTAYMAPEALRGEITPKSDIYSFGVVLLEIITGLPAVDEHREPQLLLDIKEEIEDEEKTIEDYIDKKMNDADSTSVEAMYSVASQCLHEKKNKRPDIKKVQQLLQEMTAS
To the positive control well, all reactants except for the N-(1H-imidazol-2-yl)benzamide compound according to the present invention were added, and DMSO was added to remove the solvent effect. A known control inhibitor having the following structure was added to the blank wells to inhibit kinase activity and establish a base-line.
IRAK4 was incubated with 8 mM MOPS pH 7.0, 0.2 mM EDTA, 0.33 mg/mL myelin basic protein, 10 mM magnesium acetate and [γ-33P]-ATP (specific activity approx. 500 cpm/pmol, concentration as required). The reaction was initiated by the addition of the MgATP mix. After incubation for 40 minutes at room temperature, the reaction was stopped by the addition of 3% phosphoric acid solution. 10 μL of the reaction was then spotted onto a P30 filtermat and washed three times for 5 minutes in 75 mM phosphoric acid and once in methanol prior to drying and scintillation counting.
The results are shown in Table 26 below, where the phosphorylation activity of IC50 values for IRAK4 is shown in categories (A: <50 nM, B: 50-100 nM, C: >100 nM).

Each structure is given as a SMILES string. pIC50: −log10 of the molar value.

What is called pIC50 is the IC50 on a negative log10 scale, so that one unit is a factor of ten. A low value points to a high IC50.

`O=C(Nc1nc(CCCCN2CCCC2=O)cn1-c1ccccc1)c1cccc(-c2ccc3[nH]ncc3c2)c1` [Example 258, 3-(1H-indazol-5-yl)-N-(4-(4-(2-oxopyrrolidin-1-yl)butyl)-1-phenyl-1H-imidazol-2-yl)benzamide] had a pIC50 of more than 7.30. The value for `O=C(Nc1nc(CCCCO)cn1-c1ccccc1)c1cccc(-c2cn[nH]c2)c1` [Example 111, N-(4-(4-hydroxybutyl)-1-phenyl-1H-imidazol-2-yl)-3-(1H-pyrazol-4-yl)benzamide] was more than 7.30; that for `O=C(Nc1nc(CCCN2CCCCC2)cn1-c1ccccc1)c1cccc(-c2cn[nH]c2)c1` [Example 106, N-(1-phenyl-4-(3-(piperidin-1-yl)propyl)-1H-imidazol-2-yl)-3-(1H-pyrazol-4-yl)benzamide] was more than 7.30; that for `CNC(=O)CCCc1cn(-c2ccccc2)c(NC(=O)c2cccc(-c3ccc4[nH]ncc4c3)c2)n1` [Example 244, 3-(1H-indazol-5-yl)-N-(4-(4-(methylamino)-4-oxobutyl)-1-phenyl-1H-imidazol-2-yl)benzamide] was more than 7.30. The same measure for `O=C(Nc1nc(CCCCCO)cn1-c1ccccc1)c1cccc(-c2cn[nH]c2)c1` [Example 116, N-(4-(5-hydroxypentyl)-1-phenyl-1H-imidazol-2-yl)-3-(1H-pyrazol-4-yl)benzamide]: more than 7.30.

Turning to `Cn1cc(-c2cccc(C(=O)Nc3nc(CCCCCCN4C(=O)CCC4=O)cn3-c3ccccc3)c2)cn1` [Example 226, N-(4-(6-(2,5-dioxopyrrolidin-1-yl)hexyl)-1-phenyl-1H-imidazol-2-yl)-3-(1-methyl-1H-pyrazol-4-yl)benzamide], the pIC50 is more than 7.30.

`O=C(Nc1nc(CCCCCNc2ccccc2)cn1-c1ccccc1)c1cccc(-c2cn[nH]c2)c1` [Example 117, N-(1-phenyl-4-(5-(phenylamino)pentyl)-1H-imidazol-2-yl)-3-(1H-pyrazol-4-yl)benzamide]: the pIC50 is more than 7.30. The molecule `CN1CCN(C(=O)CCCc2cn(-c3ccccc3)c(NC(=O)c3cccc(-c4ccc(N)nc4)c3)n2)CC1` [Example 274, 3-(6-aminopyridin-3-yl)-N-(4-(4-(4-methylpiperazin-1-yl)-4-oxobutyl)-1-phenyl-1H-imidazol-2-yl)benzamide] had a pIC50 of more than 7.30. On to `Cn1cc(-c2cccc(C(=O)Nc3nc(CCCC(=O)N4CC[C@@H](N)C4)cn3-c3ccccc3)c2)cn1` [Example 212, (R)—N-(4-(4-(3-aminopyrrolidin-1-yl)-4-oxobutyl)-1-phenyl-1H-imidazol-2-yl)-3-(1-methyl-1H-pyrazol-4-yl)benzamide], for which the pIC50 was more than 7.30. Molecule `COC[C@@H]1CCCN1NC(=O)CCCCc1cn(-c2ccccc2)c(NC(=O)c2cccc(-c3cn[nH]c3)c2)n1` [Example 84, (S)—N-(4-(5-((2-(methoxymethyl)pyrrolidin-1-yl)amino)-5-oxopentyl)-1-phenyl-1H-imidazol-2-yl)-3-(1H-pyrazol-4-yl)benzamide] gave a pIC50 of more than 7.30. `O=C(Nc1nc(CCC(=O)N2CCCC[C@@H]2C(F)(F)F)cn1-c1ccccc1)c1cccc(-c2cn[nH]c2)c1` [Example 39, (R)—N-(4-(3-oxo-3-(2-(trifluoromethyl)piperidin-1-yl)propyl)-1-phenyl-1H-imidazol-2-yl)-3-(1H-pyrazol-4-yl)benzamide]: the pIC50 was 7.00 to 7.30. Molecule `O=C(CCCc1cn(-c2ccccc2)c(NC(=O)c2cccc(-c3cnn(C(F)F)c3)c2)n1)NC1CC1` [Example 235, N-(4-(4-(cyclopropylamino)-4-oxobutyl)-1-phenyl-1H-imidazol-2-yl)-3-(1-(difluoromethyl)-1H-pyrazol-4-yl)benzamide] had a negative logarithm of the IC50 (pIC50) of more than 7.30. The molecule `O=C(Nc1nc(CCC(=O)N2CC[C@H](C(=O)O)C2)cn1-c1ccccc1)c1cccc(-c2cn[nH]c2)c1` [Example 26, (S)-1-(3-(2-(3-(1H-pyrazol-4-yl)benzamido)-1-phenyl-1H-imidazol-4-yl)propanoyl)pyrrolidine-3-carboxylic acid] had a pIC50 of less than 7.00.

The values above are taken from patent US12534452B2, “N-(1H-imidazol-2-yl)benzamide compound and pharmaceutical composition comprising the same as active ingredient” (KAINOS MEDICINE, INC., priority 2019, dated 2026).
